Our source for the TGI values is PubChem BioAssay (NCI).

Among the test systems are A498 renal; A549 NSCLC; EKVX NSCLC; HCC-2998 colon; HCT-116 colon; KM12 colon; RXF 393 renal; SF-268 CNS; SF-295 CNS; SK-MEL-5 melanoma; SNB-75 CNS; SW-620 colon; CAKI-1 renal.
Common to all, as to experiment: inhibition of tumour cell growth, NCI panel, 48 h

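Dose response: 5 concentrations. Exposure: 48 h. Format: 96-well plates. Endpoint: linear interpolation; highest concentration if not reached. At the TGI there is no net growth.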 Some results are limits rather than exact numbers.

For the compound `CC(C)(C)C(=O)/C=C/c1ccc(Oc2ccccc2)cc1`, the TGI in the assay with A498 renal is 32.7 µM; with A549 NSCLC, 94.3 µM; in the assay on EKVX NSCLC, 39.1 µM; in the assay on HCC-2998 colon it was above 100 µM; in the assay on HCT-116 colon, 34.7 µM; in the assay with KM12 colon, 33.9 µM. Moreover, the TGI in the assay with RXF 393 renal was 52.8 µM; with SF-268 CNS, 62.1 µM; in the assay on SF-295 CNS it was above 100 µM; in the assay with SK-MEL-5 melanoma, 32.5 µM; in the assay on SNB-75 CNS, 74.5 µM; in the assay on SW-620 colon, 36.1 µM.
`COc1c(C)c2c(c(C)c1Cl)Oc1c(C=O)c(O)c(Cl)c(C)c1C(=O)O2`: the TGI in the assay with A498 renal is 58.8 µM; in the assay on A549 NSCLC, above 100 µM; with CAKI-1 renal, above 100 µM; in the assay on EKVX NSCLC, 46.2 µM; in the assay with HCC-2998 colon, 69.8 µM; with HCT-116 colon, 61.9 µM. The TGI in the assay on KM12 colon is above 100 µM; in the assay with SF-268 CNS, above 100 µM; in the assay with SF-295 CNS it was above 100 µM; with SK-MEL-5 melanoma, above 100 µM; in the assay on SNB-75 CNS, 79.7 µM; in the assay on SW-620 colon, above 100 µM.
As for `COc1cc2c(cc1OC)C(O)[C@H](Br)C(C)(C)O2` (stereo partly drawn), the TGI in the assay on A549 NSCLC, in the assay with EKVX NSCLC, with HCC-2998 colon, with HCT-116 colon, in the assay on KM12 colon and in the assay with RXF 393 renal was above 100 µM in each case. The TGI in the assay on SF-268 CNS, in the assay with SF-295 CNS, in the assay on SK-MEL-5 melanoma, in the assay with SNB-75 CNS and with SW-620 colon was above 100 µM in each case.
Turning to `Cc1ccc2c(c1CCCC(C)(C)O)C(=O)C(=O)C(C(C)C)=C2O`, the TGI in the assay on A498 renal, with A549 NSCLC, in the assay with CAKI-1 renal, in the assay on EKVX NSCLC, in the assay on HCC-2998 colon and with HCT-116 colon was above 100 µM in each case. For the same compound, the TGI with KM12 colon, in the assay with RXF 393 renal, in the assay with SF-268 CNS, in the assay with SF-295 CNS, in the assay with SK-MEL-5 melanoma and in the assay on SNB-75 CNS was above 100 µM each time. Besides, the TGI in the assay on SW-620 colon is above 100 µM.
For `Cc1cn(C2CC(N(O)Cc3ccccc3)C(CO)O2)c(=O)[nH]c1=O` (stereo not drawn), the TGI in the assay on A549 NSCLC, in the assay on EKVX NSCLC, in the assay on HCC-2998 colon, in the assay on HCT-116 colon, in the assay with KM12 colon and with RXF 393 renal was above 100 µM throughout. The TGI with SF-268 CNS, with SF-295 CNS, in the assay on SK-MEL-5 melanoma, with SNB-75 CNS and in the assay with SW-620 colon was above 100 µM in each case.
Turning to `O=c1[nH]cc(COCC(F)(F)C(F)(F)C(F)(F)C(F)F)c(=O)[nH]1`, the TGI in the assay on A549 NSCLC, in the assay with CAKI-1 renal, with EKVX NSCLC, with HCC-2998 colon, in the assay with HCT-116 colon and in the assay with KM12 colon was above 100 µM throughout. Also, the TGI in the assay on RXF 393 renal, in the assay with SF-268 CNS, in the assay on SF-295 CNS, with SK-MEL-5 melanoma, in the assay on SNB-75 CNS and with SW-620 colon was above 100 µM in each case.
Take `Cc1cn2c(=O)c3ccccc3nc2s1`: the TGI with A498 renal, in the assay on A549 NSCLC, in the assay with CAKI-1 renal, in the assay with EKVX NSCLC, with HCC-2998 colon and in the assay with HCT-116 colon was above 100 µM throughout. Moreover, the TGI with KM12 colon, with RXF 393 renal, in the assay on SF-268 CNS, in the assay on SF-295 CNS, with SK-MEL-5 melanoma and with SNB-75 CNS was above 100 µM each time. Further, the TGI with SW-620 colon is above 100 µM.
Regarding `CCOC(=O)C(N=Nc1ccc(S(N)(=O)=O)cc1)C(C)=O` (stereo not drawn), the TGI in the assay with A498 renal, in the assay on A549 NSCLC, with CAKI-1 renal, with EKVX NSCLC, in the assay on HCC-2998 colon and with HCT-116 colon was above 100 µM each time. Further, the TGI in the assay with KM12 colon, in the assay on RXF 393 renal, in the assay on SF-268 CNS, in the assay with SF-295 CNS, in the assay on SK-MEL-5 melanoma and with SNB-75 CNS was above 100 µM in each case. Moreover, the TGI in the assay on SW-620 colon is above 100 µM.
As for `Cc1cccc(NC(=O)/C=C/c2ccc(N(CCC#N)CCC#N)cc2C)c1`, the TGI with A498 renal, in the assay on A549 NSCLC, in the assay on CAKI-1 renal, in the assay on EKVX NSCLC, in the assay with HCC-2998 colon and in the assay on HCT-116 colon was above 100 µM throughout. In addition, the TGI with KM12 colon, in the assay with SF-268 CNS, in the assay on SF-295 CNS, in the assay on SK-MEL-5 melanoma, with SNB-75 CNS and in the assay with SW-620 colon was above 100 µM in each case.
`Clc1ccc(-c2c(C3=NCCN3)nnn2-c2ccc(Cl)cc2)cc1`: the TGI with A498 renal was 38.4 µM; in the assay with A549 NSCLC, above 100 µM; in the assay with CAKI-1 renal, above 100 µM; in the assay with EKVX NSCLC, above 100 µM; in the assay with HCC-2998 colon, 33.6 µM; in the assay with HCT-116 colon it was 32.3 µM. The TGI in the assay with KM12 colon is 56.3 µM; in the assay with RXF 393 renal, 75.8 µM; with SF-268 CNS, above 100 µM; with SF-295 CNS, 38.9 µM; with SK-MEL-5 melanoma, 30.5 µM; with SNB-75 CNS it was 48.3 µM. Besides, the TGI with SW-620 colon was determined as 73.8 µM.
In the case of `CCN1CCN(c2ccc(Nc3ccnc4ccc5nn(C)nc5c34)cc2)CC1`, the TGI came out at 27.3 µM with A549 NSCLC; 29 µM in the assay on CAKI-1 renal; 26 µM in the assay on HCC-2998 colon; 18.1 µM with HCT-116 colon; 24 µM with KM12 colon; 22.5 µM in the assay with RXF 393 renal. Also, the TGI is 29.8 µM in the assay on SF-268 CNS; 25.5 µM with SF-295 CNS; 28.5 µM in the assay on SK-MEL-5 melanoma; 26.4 µM in the assay on SNB-75 CNS; 19.7 µM in the assay with SW-620 colon.
Consider `CCCCCC(C[N+]1(C)CCOCC1)C(=O)/C=C/c1ccccc1` (stereo not drawn), for which the TGI was 31.7 µM in the assay with A498 renal; 62 µM with A549 NSCLC; 32.1 µM with CAKI-1 renal; 38.2 µM in the assay on EKVX NSCLC; 33.7 µM with HCC-2998 colon; 11.7 µM in the assay on HCT-116 colon. Moreover, the TGI in the assay with KM12 colon was determined as 8.71 µM; with RXF 393 renal, 28.2 µM; in the assay on SF-295 CNS, 21.6 µM; in the assay with SK-MEL-5 melanoma, 28.1 µM; with SNB-75 CNS, 15.7 µM; in the assay with SW-620 colon, 7.51 µM.
Consider `Cc1ccc(C2CC(c3ccco3)=NN2c2ccccc2)o1` (stereo not drawn), for which the TGI in the assay with A549 NSCLC, in the assay on EKVX NSCLC, with HCT-116 colon, in the assay with KM12 colon, in the assay on RXF 393 renal and in the assay on SF-268 CNS was above 100 µM throughout. Moreover, the TGI in the assay on SF-295 CNS, with SK-MEL-5 melanoma, with SNB-75 CNS and with SW-620 colon was above 100 µM in each case.
Take `N#C/C(=C\c1ccc(O)c(O)c1)C(N)=O`: the TGI was above 100 µM in the assay on A498 renal; above 100 µM in the assay with A549 NSCLC; above 100 µM in the assay on CAKI-1 renal; above 100 µM in the assay on EKVX NSCLC; above 100 µM with HCC-2998 colon; 67.9 µM in the assay on HCT-116 colon. Moreover, the TGI is above 100 µM with KM12 colon; 51.6 µM in the assay with RXF 393 renal; above 100 µM in the assay with SF-268 CNS; above 100 µM in the assay with SF-295 CNS; above 100 µM with SNB-75 CNS; above 100 µM in the assay on SW-620 colon.
On to `O=C1C(Cl)C(c2ccccc2)N1n1cnc2ccccc2c1=O` (stereo not drawn), for which the TGI in the assay with A549 NSCLC, with CAKI-1 renal, in the assay on EKVX NSCLC, in the assay on HCC-2998 colon, in the assay with HCT-116 colon and in the assay with KM12 colon was above 100 µM each time. In addition, the TGI in the assay on RXF 393 renal was above 100 µM; in the assay on SF-268 CNS it was above 100 µM; in the assay on SF-295 CNS, above 100 µM; in the assay with SK-MEL-5 melanoma it was above 100 µM; in the assay with SNB-75 CNS it was 82.4 µM; with SW-620 colon it was above 100 µM.
Consider `Nc1ccc(C(=O)NN2C(=O)C(Cl)C2c2ccccc2Cl)cc1` (stereo not drawn), for which the TGI was 27.8 µM in the assay with A549 NSCLC; 26.9 µM in the assay with CAKI-1 renal; 31.7 µM in the assay on EKVX NSCLC; 30.1 µM with HCC-2998 colon; 16.3 µM with HCT-116 colon; 24.5 µM in the assay on KM12 colon. In addition, the TGI in the assay on RXF 393 renal worked out at 20.1 µM; in the assay on SF-268 CNS, 15.2 µM; with SF-295 CNS, 12.6 µM; in the assay on SK-MEL-5 melanoma, 29.5 µM; in the assay on SNB-75 CNS it was 31.3 µM; in the assay on SW-620 colon, 10.7 µM.
Regarding `COC(=O)C(=C/c1ccc(OC)cc1)/C(C(=O)O)=C(/C)c1ccccc1`, the TGI in the assay with A498 renal, in the assay with A549 NSCLC, in the assay with CAKI-1 renal, in the assay with EKVX NSCLC, in the assay with HCC-2998 colon and in the assay with HCT-116 colon was above 100 µM throughout. Also, the TGI in the assay with KM12 colon, in the assay on RXF 393 renal, in the assay on SF-295 CNS, in the assay on SK-MEL-5 melanoma, in the assay on SNB-75 CNS and in the assay with SW-620 colon was above 100 µM in each case.
